Like-named read-outs stand apart in the source and are kept apart here.
Assays:
Type in all cases: cell-based
A431 (EGFR_WT) = molecular target: T1, A431 (EGFR_WT) (Homo sapiens, UniProt P00533); experiment: EGFR degradation assay (western blot), A431 cells; conditions: compounds 24 h, western blot, read-out: A431 DC50
T1 construct: endogenous in cells; host or cells: A431, NCI-H2073, NCI-H292
Method: (§1) A431 (EGFR_WT), NCl-H2073 (EGFR_WT), NCl-H292 (EGFR_WT), BaF3_YVAM (Her2_A775insYVAM), BaF3_SVD (EGFR_D770insSVD), BaF3_ASV (EGFR_A776inASV), or BaF3_DTC (EGFR_Exon19del/T790M/C797S) cells were seeded in a 24-well plate at a density of 4×10^5 cells per well for EGFR WT cells and 8× cells per well for EGFR or Her2 mutant cells, and the plates were incubated overnight. The cells were treated with the desired compounds for 24 h. The culture medium was removed, and 100 μL of RIPA buffer (Beyotime, P0013B) containing 1% Protease Inhibitor Cocktail (Bimake, B14001), 1% Phosphatase Inhibitor Cocktail 2 (Sigma, P5726), and 1% Phosphatase Inhibitor Cocktail 3 (Sigma, P0044) were added to lyse the cells. Then, the cell lysates were transferred to 1.5 mL microcentrifuge tubes and centrifuged at 12,000 rpm and 4° C. for 30 min. The supernatants were transferred into new tubes, and the protein concentration was determined using the BCA protein quantification method. All samples were diluted to the same concentration using RIPA buffer, loading buffer was added, samples were denatured, and 15 μg of protein per lane was loaded onto a SurePAGE 4-20% Bis-Tris gel. Samples were separated via electrophoresis in MOPS running buffer at 180 V for 100 min. Then, proteins were transferred onto PVDF membranes using the MiniBlot™ Electrophoretic Transfer Cell Device (Beyotime, E6050). The membrane was blocked using block buffer (LI-COR 927-60001) to prevent non-specific binding. The membrane was incubated with primary antibodies (1:500 dilution, EGFR-CST4405, 1:2000 dilution, Tubulin-ABclonal #AC021) at 4° C. overnight. The membrane was washed three times with 1× TBST buffer for 15 min each. The membrane was incubated with secondary antibodies IRDye 680RD Goat anti-Rabbit IgG Secondary Antibody (1:2000 dilution, LI-COR 926-68071) and IRDye 800CW Goat anti-Mouse IgG Secondary Antibody (1:2000 dilution, LI-COR 926-32210). Finally, the membrane was washed again with 1× TBST buffer 3 times. Fluorescence was detected using the Odyssey CLx Imaging System, and the data were analyzed with Empiria Studio Software and GraphPad Prism 9. Table 4 and Table 5 list the degradation results, where the degradation potency is represented by DC50, the concentration of compounds to cause the degradation of 50% of the corresponding proteins. FIGS. 45-49 show western blots illustrating the EGFR degradative activity of exemplary Compound of the present disclosure and a comparator Compound A in different cell lines 24 h after administration. The Compound referred herein as Compound A is disclosed in WO 2022/171123 A1 (see, compound 133, page 46; published Aug. 18, 2022). WO 2022/171123 A1 discloses phosphine oxide derived molecules with EGFR degradation activity.

[1] = tested on: BaF3_DTC (EGFR_Exon19del/T790M/C797S); experiment: EGFR degradation assay (western blot), BaF3_DTC cells; conditions: BaF3_DTC cells (EGFR_Exon19del/T790M/C797S), compounds 24 h, western blot; read-out: BaF3_DTC DC50
Method: as §1

[2] = molecular target: T2, BaF3_ASV (EGFR_A776inASV) (Homo sapiens, UniProt P00533, DUP767-769); experiment: EGFR degradation assay (western blot), BaF3_ASV cells; conditions: BaF3_ASV cells, compounds 24 h, western blot; read-out: BaF3_ASV DC50
T2 construct: expressed in transfected cells; host or cells: Ba/F3 (engineered)
T2 sequence (P00533 with tags, fused parts or gaps DUP767-769): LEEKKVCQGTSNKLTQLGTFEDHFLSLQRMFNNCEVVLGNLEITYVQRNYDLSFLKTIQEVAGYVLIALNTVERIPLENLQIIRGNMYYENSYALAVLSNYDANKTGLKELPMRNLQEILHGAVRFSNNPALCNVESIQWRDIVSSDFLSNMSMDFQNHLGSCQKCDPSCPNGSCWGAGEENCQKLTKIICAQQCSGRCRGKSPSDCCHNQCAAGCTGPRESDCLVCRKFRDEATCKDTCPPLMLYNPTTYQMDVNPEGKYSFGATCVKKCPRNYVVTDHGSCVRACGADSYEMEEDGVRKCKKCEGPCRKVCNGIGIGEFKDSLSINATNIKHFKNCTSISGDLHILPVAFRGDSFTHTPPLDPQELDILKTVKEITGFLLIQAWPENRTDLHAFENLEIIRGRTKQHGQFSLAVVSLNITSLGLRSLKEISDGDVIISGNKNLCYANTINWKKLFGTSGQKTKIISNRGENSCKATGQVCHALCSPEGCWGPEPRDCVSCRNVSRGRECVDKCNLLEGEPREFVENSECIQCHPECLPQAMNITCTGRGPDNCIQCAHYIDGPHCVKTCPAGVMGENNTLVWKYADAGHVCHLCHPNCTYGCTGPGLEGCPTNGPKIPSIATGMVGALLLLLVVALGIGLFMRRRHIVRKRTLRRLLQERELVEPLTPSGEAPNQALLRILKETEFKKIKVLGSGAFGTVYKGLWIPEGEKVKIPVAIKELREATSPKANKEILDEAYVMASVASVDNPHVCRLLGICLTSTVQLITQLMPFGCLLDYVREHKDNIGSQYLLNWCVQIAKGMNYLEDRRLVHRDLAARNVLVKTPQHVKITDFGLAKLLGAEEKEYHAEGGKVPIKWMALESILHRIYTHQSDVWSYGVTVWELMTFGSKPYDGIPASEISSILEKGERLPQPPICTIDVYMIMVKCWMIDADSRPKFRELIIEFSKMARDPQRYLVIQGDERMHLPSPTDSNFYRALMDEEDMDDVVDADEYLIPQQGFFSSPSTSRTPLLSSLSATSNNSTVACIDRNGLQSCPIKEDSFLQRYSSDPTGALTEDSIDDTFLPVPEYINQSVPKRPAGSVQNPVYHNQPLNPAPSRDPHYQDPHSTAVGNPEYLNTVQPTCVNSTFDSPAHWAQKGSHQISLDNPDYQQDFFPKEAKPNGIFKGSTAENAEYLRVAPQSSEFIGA
Method: as §1

A431 = experiment: Cell growth inhibition assay (CellTiter-Glo), A431; conditions: Homo sapiens, A-431, 72 h, Table 6; A431 cells, three days, CellTiter-Glo; read-out: A431 GI50
Method: (§2) Cells were seeded in a 96-well plate (Corning 3610) with 90 μL of culture medium per well, and plates were incubated at 37° C. overnight. A 1,000× DMSO stock solution of the desired compound was prepared the following day. A compound dilution plate was prepared by diluting the stock solution 1:100 in the corresponding cell culture medium, 10 μL of the diluted compound solution was added to each 96-well plate well containing the seeded cells. […] The content of the wells was mixed by shaking continuously for 10 min, and luminescence was measured using Envision (PerkinElmer). The data were analyzed with GraphPad Prism 9 (see FIG. 50).
(§3) Table 6, Table 7, and Table 8 list the cell growth inhibition results, where Gls0 represents the compound concentration to cause 50% cell growth inhibition in comparison with DMSO.

BaF3_DTC = experiment: Cell growth inhibition assay (CellTiter-Glo), BaF3_DTC; conditions: 72 h; Table 6; BaF3_DTC cells, three days, CellTiter-Glo; read-out: BaF3_DTC GI50
Method: as §2, §3

BaF3_ASV = experiment: Cell growth inhibition assay (CellTiter-Glo), BaF3_ASV; conditions: 72 h
Method: as §2, §3

[3] = Table 6, BaF3_ASV cells, three days, CellTiter-Glo, read-out: BaF3_ASV GI50

T1 sequence (P00533 25-1210): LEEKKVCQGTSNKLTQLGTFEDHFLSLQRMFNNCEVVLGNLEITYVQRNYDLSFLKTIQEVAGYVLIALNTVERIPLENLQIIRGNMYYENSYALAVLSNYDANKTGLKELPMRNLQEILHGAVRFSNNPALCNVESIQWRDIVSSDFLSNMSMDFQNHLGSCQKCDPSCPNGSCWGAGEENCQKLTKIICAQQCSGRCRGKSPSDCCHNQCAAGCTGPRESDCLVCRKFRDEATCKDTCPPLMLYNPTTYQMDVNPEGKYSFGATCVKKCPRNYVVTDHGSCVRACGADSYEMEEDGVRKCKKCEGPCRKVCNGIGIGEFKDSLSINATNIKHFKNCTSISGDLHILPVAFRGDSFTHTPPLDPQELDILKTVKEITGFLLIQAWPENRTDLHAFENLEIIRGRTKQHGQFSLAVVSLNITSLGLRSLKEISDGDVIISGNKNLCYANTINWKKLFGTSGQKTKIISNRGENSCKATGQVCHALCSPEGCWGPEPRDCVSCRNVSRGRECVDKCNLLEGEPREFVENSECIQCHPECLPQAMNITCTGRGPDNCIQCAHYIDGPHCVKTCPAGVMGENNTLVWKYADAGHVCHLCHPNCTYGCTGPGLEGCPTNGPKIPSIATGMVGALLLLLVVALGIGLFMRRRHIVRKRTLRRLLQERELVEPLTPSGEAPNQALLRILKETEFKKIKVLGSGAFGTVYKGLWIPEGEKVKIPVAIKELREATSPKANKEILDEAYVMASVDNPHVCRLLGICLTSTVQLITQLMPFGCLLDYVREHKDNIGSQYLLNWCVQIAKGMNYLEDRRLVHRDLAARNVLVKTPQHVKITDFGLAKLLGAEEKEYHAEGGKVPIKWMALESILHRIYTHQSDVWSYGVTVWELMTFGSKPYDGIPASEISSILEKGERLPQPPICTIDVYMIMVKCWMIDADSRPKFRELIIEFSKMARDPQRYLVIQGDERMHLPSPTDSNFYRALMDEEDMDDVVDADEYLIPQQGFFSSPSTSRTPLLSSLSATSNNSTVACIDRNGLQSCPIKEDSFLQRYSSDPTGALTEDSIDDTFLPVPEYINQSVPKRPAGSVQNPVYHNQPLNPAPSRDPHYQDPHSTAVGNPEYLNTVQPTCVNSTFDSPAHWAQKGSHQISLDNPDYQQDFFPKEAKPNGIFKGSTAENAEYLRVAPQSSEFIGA

Structure (SMILES) | DC50 (A431 (EGFR_WT)) | DC50 [1] | DC50 [2] | GI50 (A431) | GI50 (BaF3_DTC) | GI50 (BaF3_ASV; [3]) | GI50 (BaF3_ASV; read-out: BaF3_ASV GI50 (nM))
CCc1cc(Nc2ncc(Br)c(Nc3ccc4nccnc4c3NS(C)(=O)=O)n2)c(OC)cc1N1CCC(N2CCN(C3CC4(CCN(c5ccc6c(c5)CN(C5CCC(=O)NC5=O)C6=O)CC4)C3)CC2)CC1 (stereo not drawn) [Compound 48, N-(6-((5-bromo-2-((4-(4-(4-(7-(2-(2,6-dioxopiperidin-3-yl)-1-oxoisoindolin-5-yl)-7-azaspiro[3.5]nonan-2-yl)piperazin-1-yl)piperidin-1-yl)-5-ethyl-2-methoxyphenyl)amino)pyrimidin-4-yl)amino)quinoxalin-5-yl)methanesulfonamide] | > 1000 nM | 4.26 nM | 23.7 nM | > 1000 nM | 6.04 nM | 36.8 nM | –
CCc1cc(Nc2ncc(Br)c(Nc3ccc4nccnc4c3NS(C)(=O)=O)n2)c(OC)cc1N1CCC(N2CC3(CCN(c4ccc5c(c4)CN(C4CCC(=O)NC4=O)C5=O)CC3)C2)CC1 (stereo not drawn) [Compound 57, N-(6-((5-bromo-2-((4-(4-(7-(2-(2,6-dioxopiperidin-3-yl)-1~oxoisoindolin-5-yl)-2,7-diazaspiro[3.5]nonan-2-yl)piperidin-1-yl)-5-ethyl-2-methoxyphenyl)amino)pyrimidin-4-yl)amino)quinoxalin-5-yl)methanesulfonamide] | > 1000 nM | 4.73 nM | 44.5 nM | 360 nM | 5.89 nM | 51.5 nM | –
CCc1cc(Nc2ncc(Br)c(Nc3ccc4nccnc4c3NS(C)(=O)=O)n2)c(OC)cc1N1CCC(N2CCN(c3ccc4c(c3)CN([C@H]3CCC(=O)NC3=O)C4=O)CC2)CC1 [Compound 38, (S)-N-(6-((5-bromo-2-((4-(4-(4-(2-(2,6-dioxopiperidin-3-yl)-1-oxoisoindolin-5-yl)piperazin-1-yl)piperidin-1-yl)-5-ethyl-2-methoxyphenyl)amino)pyrimidin-4-yl)amino)quinoxalin-5~yl)methanesulfonamide] | > 1000 nM | 4.2 nM | 35.1 nM | > 1000 nM | 9.14 nM | 90.3 nM | –
CCc1cc(Nc2ncc(Br)c(Nc3ccc4nccnc4c3NS(C)(=O)=O)n2)c(OC)cc1N1CCC(N2CCN(CCc3cc(F)c(C4CCC(=O)NC4=O)c(F)c3)CC2)CC1 (stereo not drawn) [Compound 71, N-(6-((5-bromo-2-((4-(4-(4-(4-(2,6-dioxopiperidin-3-yl)-3,5~difluorophenethyl)piperazin-1-yl)piperidin-1-yl)-5-ethyl-2-methoxyphenyl)amino)pyrimidin-4-yl)amino)quinoxalin-5-yl)methanesulfonamide] | > 1000 nM | 3.51 nM | 55.1 nM | > 3000 nM | 5.41 nM | 131 nM | –
CCc1cc(Nc2ncc(Br)c(Nc3ccc4nccnc4c3NS(C)(=O)=O)n2)c(OC)cc1N1CCC(N2CCN(CC3CCN(c4ccc5c(c4)CN(C4CCC(=O)NC4=O)C5=O)CC3)CC2)CC1 (stereo not drawn) [Compound 7, N-(6-((5-bromo-2-((4-(4-(4-((1-(2-(2,6-dioxopiperidin-3-yl)-1-oxoisoindolin-5-yl)piperidin-4-yl)methyl)piperazin-1-yl)piperidin-1-yl)-5-ethyl-2-methoxyphenyl)amino)pyrimidin-4~yl)amino)quinoxalin-5-yl)methanesulfonamide] | > 1000 nM | 2.43 nM | 16.6 nM | > 1000 nM | 2.84 nM | 41.9 nM | –
CCc1cc(Nc2ncc(Br)c(Nc3ccc4nccnc4c3NS(C)(=O)=O)n2)c(OC)cc1N1CCC(N2CCN(C3CCN(c4ccc5c(c4)CN(C4CCC(=O)NC4=O)C5=O)CC3)CC2)CC1 (stereo not drawn) [Compound 49, N-(6-((5-bromo-2-((4-(4-(4-(1-(2-(2,6-dioxopiperidin-3-yl)-1-oxoisoindolin-5-yl)piperidin-4-yl)piperazin-1-yl)piperidin-1-yl)-5-ethyl-2-methoxyphenyl)amino)pyrimidin-4-yl)amino)quinoxalin-5-yl)methanesulfonamide] | > 1000 nM | 2.36 nM | 19.7 nM | ≥ 1000 nM | 4.43 nM | 32.7 nM | –
CCc1cc(Nc2ncc(Br)c(Nc3ccc4nccnc4c3NS(C)(=O)=O)n2)c(OC)cc1N1CCC(N2CCN(CCc3cccc4c3oc(=O)n4C3CCC(=O)NC3=O)CC2)CC1 (stereo not drawn) [Compound 77, N-(6-((5-bromo-2-((4-(4-(4-(2-(3-(2,6-dioxopiperidin-3-yl)-2-oxo-2,3-dihydrobenzo[d]oxazol-7-yl)ethyl)piperazin-1-yl)piperidin-1-yl)-5-ethyl-2-methoxyphenyl)amino)pyrimidin-4-yl)amino)quinoxalin-5-yl)methanesulfonamide] | > 1000 nM | 2.7 nM | > 1000 nM | > 3000 nM | 5.39 nM | – | 131 nM
CCc1cc(Nc2ncc(Br)c(Nc3ccc4nccnc4c3NS(C)(=O)=O)n2)c(OC)cc1N1CCC(N2CCN(CCc3cccc4c3C(=O)N(C3CCC(=O)NC3=O)C4)CC2)CC1 (stereo not drawn) [Compound 8, N-(6-((5-bromo-2-((4-(4-(4-(2-(2-(2,6-dioxopiperidin-3-yl)-3-oxoisoindolin-4-yl)ethyl)piperazin-1-yl)piperidin-1-yl)-5-ethyl-2-methoxyphenyl)amino)pyrimidin-4-yl)amino)quinoxalin-5-yl)methanesulfonamide] | > 1000 nM | 23.3 nM | > 1000 nM | > 1000 nM | 24.7 nM | 858 nM | –
CCc1cc(Nc2ncc(Br)c(Nc3ccc4nccnc4c3NS(C)(=O)=O)n2)c(OC)cc1N1CCC(N2CCN(CCc3cccc4c3CN(C3CCC(=O)NC3=O)C4=O)CC2)CC1 (stereo not drawn) [Compound 9, N-(6-((5-bromo-2-((4-(4-(4-(2-(2-(2,6-dioxopiperidin-3-yl)-1-oxoisoindolin-4-yl)ethyl)piperazin-1-yl)piperidin-1-yl)-5-ethyl-2-methoxyphenyl)amino)pyrimidin-4-yl)amino)quinoxalin-5-yl)methanesulfonamide] | > 1000 nM | 8.05 nM | 251 nM | > 1000 nM | 14.7 nM | 563 nM | –
CCc1cc(Nc2ncc(Br)c(Nc3ccc4nccnc4c3NS(C)(=O)=O)n2)c(OC)cc1N1CCC(N2CCC(C(=O)N3CCN(c4ccc5c(c4)CN([C@H]4CCC(=O)NC4=O)C5=O)CC3)CC2)CC1 [Compound 41, (S)-N-(6-((5-bromo-2-((4-(4-(4-(2-(2,6-dioxopiperidin-3-yl)-1-oxoisoindolin-5-yl)piperazine-1-carbonyl)-[1,4′-bipiperidin]-1′-yl)-5-ethyl-2-methoxyphenyl)amino)pyrimidin-4-yl)amino)quinoxalin-5-yl)methanesulfonamide] | > 1000 nM | > 100 nM | 335 nM | > 1000 nM | 123 nM | 52.7 nM | –
